Measured values: patent US20240393292A1, “ALLERGY ANTIGEN AND EPITOPE THEREOF” (HOYU CO., LTD., priority 2019, published 2024)
Each block holds one substance with its values, some of them ahead of it.

System: IgE antibodies from patients
Assay: Wheat epitope mapping (2): overlapping 10-amino-acid peptide fragments shifted by one amino acid;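 as to Rank of partial sequence as epitope binding to IgE antibody: key = sequence deemed particularly important within the common 15-residue sequence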;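 as to epitope sequence binding to IgE antibody, rank (Key/Preferably/More preferably): key of grades: preferably = shorter partial sequence still acting as epitope; more preferably = sequence improving IgE binding; key = particularly important sequence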
Assay type: binding, human
How it was run: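 Residual binding was banded as <30% none, 30–<50% poor, 50–<70% somewhat poor and ≥70% retained, relative to the parent overlapping sequence set to 100%. Values were chemiluminescent IgE signals from patient sera after subtracting secondary-antibody-only controls. The peptides were spot-synthesised 10-mers shifted by one amino acid.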

[1] = serum of patient P36 (WDEIA), sequence without X
[2] = serum of patient P32 (WDEIA), sequence without X
[3] = serum of patient P50 (child, general immediate type allergy to wheat), sequence without X
[4] = serum of patient P29 (WDEIA), sequence without X
[5] = serum of patient P22 (WDEIA), sequence without X
[6] = serum of patient G7 (adult, general immediate type allergy to wheat), sequence without X
[7] = serum of patient P17 (WDEIA), sequence without X

Substance: 1826 (PKFL; REGION 1..4: note = epitope) [compound 1826]
epitope sequence binding to IgE antibody, rank (Key/Preferably/More preferably) (serum of patient G1 (adult, general immediate type allergy to wheat)): Key

Substance: 2244 (RNYRVA; REGION 1..6: note = epitope) [compound 2244]
Epitope sequence binding to IgE antibody, rank of the sequence (Key/Preferably/More preferably) [1]: Key

Substance: 1341 (NRRALR; REGION 1..6: note = epitope) [compound 1341]
Epitope sequence binding to IgE antibody, rank of the sequence [2]: Key

Substance: 1912 (QVPLVQQQ; REGION 1..8: note = epitope) [compound 1912]
epitope sequence binding to IgE antibody, rank (Key/Preferably/More preferably) (serum of patient P8 (WDEIA)): Preferably

Substance: 1763 (LKKVGYN; REGION 1..7: note = epitope) [compound 1763]
epitope sequence binding to IgE antibody, rank (Key/Preferably/More preferably) (serum of patient P27 (WDEIA)): Key

Substance: 2385 (VTEI; REGION 1..4: note = epitope) [compound 2385]
Epitope sequence binding to IgE antibody, rank of the sequence (Key/Preferably/More preferably) [4]: Key

Substance: 1346 (NRRALR; REGION 1..6: note = epitope) [compound 1346]
Epitope sequence binding to IgE antibody, rank of the sequence (serum of patient P33 (WDEIA), sequence without X): Key

Substance: 1738 (EAANF; REGION 1..5: note = epitope) [compound 1738]
epitope sequence binding to IgE antibody, rank (Key/Preferably/More preferably) (serum of patient P57 (child, general immediate type allergy to wheat)): Key

Substance: 1872 (YTVRTLQRT; REGION 1..9: note = epitope) [compound 1872]
epitope sequence binding to IgE antibody, rank (Key/Preferably/More preferably) (serum of patient P30 (WDEIA)): Preferably

Substance: 2519 (PSQLN; REGION 1..5: note = epitope) [compound 2519]
Epitope sequence binding to IgE antibody, rank of the sequence (serum of patient P53 (child, general immediate type allergy to wheat), partial sequence): Key

Substance: 2240 (IRNYRVAI; REGION 1..8: note = epitope) [compound 2240]
Epitope sequence binding to IgE antibody, rank of the sequence (Key/Preferably/More preferably) [2]: Key

Substance: 1653 (YNPDKVPFV; REGION 1..9: note = epitope) [compound 1653]
Rank of partial sequence as epitope binding to IgE antibody (serum of patient P51 (child, general immediate type allergy to wheat), sequence without X): Preferably

Substance: 2299 (GIDK; REGION 1..4: note = epitope) [compound 2299]
Epitope sequence binding to IgE antibody, rank of the sequence (Key/Preferably/More preferably) (serum of patient G1 (adult, general immediate type allergy to wheat), sequence without X): Key

Substance: 1727 (KEAANF; REGION 1..6: note = epitope) [compound 1727]
epitope sequence binding to IgE antibody, rank (Key/Preferably/More preferably) (serum of patient P51 (child, general immediate type allergy to wheat)): Key

Substance: 2633 (KEAAEM; REGION 1..6: note = epitope) [compound 2633]
Epitope sequence binding to IgE antibody, rank of the sequence (serum of patient P7 (WDEIA), partial sequence): Preferably

Substance: 1729 (ANFTSQVIIM; REGION 1..10: note = epitope) [compound 1729]
epitope sequence binding to IgE antibody, rank (Key/Preferably/More preferably) (serum of patient P52 (child, general immediate type allergy to wheat)): Preferably

Substance: 1949 (VPLVQQ; REGION 1..6: note = epitope) [compound 1949]
epitope sequence binding to IgE antibody, rank (Key/Preferably/More preferably) (serum of patient P24 (WDEIA)): Key

Substance: 1333 (INVEN; REGION 1..5: note = epitope) [compound 1333]
Epitope sequence binding to IgE antibody, rank of the sequence [5]: Key

Substance: 1420 (SQQQA; REGION 1..5: note = epitope) [compound 1420]
Epitope sequence binding to IgE antibody, rank of the sequence (serum of patient P9 (WDEIA), sequence without X): Key

Substance: 2423 (AWSGKTEN; REGION 1..8: note = epitope) [compound 2423]
Epitope sequence binding to IgE antibody, rank of the sequence (Key/Preferably/More preferably) (serum of patient P12 (WDEIA), sequence without X): More preferably

Substance: 1332 (SINVEN; REGION 1..6: note = epitope) [compound 1332]
Epitope sequence binding to IgE antibody, rank of the sequence [5]: Preferably

Substance: 1906 (QFPGQQQ; REGION 1..7: note = epitope) [compound 1906]
epitope sequence binding to IgE antibody, rank (Key/Preferably/More preferably) (serum of patient P4 (WDEIA)): Key

Substance: 2530 (FQPSQLNP; REGION 1..8: note = epitope) [compound 2530]
Epitope sequence binding to IgE antibody, rank of the sequence (serum of patient G2 (adult, general immediate type allergy to wheat), partial sequence): Preferably

Substance: 2417 (RCAYVTEIVL; REGION 1..10: note = epitope) [compound 2417]
Epitope sequence binding to IgE antibody, rank of the sequence (Key/Preferably/More preferably) [6]: Preferably

Substance: 1647 (YNPD; REGION 1..4: note = epitope) [compound 1647]
Rank of partial sequence as epitope binding to IgE antibody [1]: Key

Substance: 1664 (YNPDKVPF; REGION 1..8: note = epitope) [compound 1664]
Rank of partial sequence as epitope binding to IgE antibody (serum of patient G2 (adult, general immediate type allergy to wheat), sequence without X): Key

Substance: 2306 (GIDK; REGION 1..4: note = epitope) [compound 2306]
Epitope sequence binding to IgE antibody, rank of the sequence (Key/Preferably/More preferably) (serum of patient G9 (adult, general immediate type allergy to wheat), sequence without X): Key

Substance: 1885 (RTLQ; REGION 1..4: note = epitope) [compound 1885]
epitope sequence binding to IgE antibody, rank (Key/Preferably/More preferably) (serum of patient P35 (WDEIA)): Key

Substance: 1942 (QQFPGQQ; REGION 1..7: note = epitope) [compound 1942]
epitope sequence binding to IgE antibody, rank (Key/Preferably/More preferably) (serum of patient P21 (WDEIA)): Preferably

Substance: 1320 (NVEN; REGION 1..4: note = epitope) [compound 1320]
Epitope sequence binding to IgE antibody, rank of the sequence [7]: Key

Substance: 1296 (ILPRSDCKV; REGION 1..9: note = epitope) [compound 1296]
Epitope sequence binding to IgE antibody, rank of the sequence [6]: Key

The remaining lines, values ahead:

Rank of partial sequence as epitope binding to IgE antibody [3]: Key
Substance: 1591 (QPFPQTQQP; REGION 1..9: note = epitope) [compound 1591]

Epitope sequence binding to IgE antibody, rank of the sequence (serum of patient P16 (WDEIA), partial sequence): Preferably
Substance: 2504 (SSQVSF; REGION 1..6: note = epitope) [compound 2504]

Rank of partial sequence as epitope binding to IgE antibody [5]: More preferably
Substance: 1454 (QQPISQQQAQ; REGION 1..10: note = epitope) [compound 1454]

epitope sequence binding to IgE antibody, rank (Key/Preferably/More preferably) (serum of patient P3 (WDEIA)): Key
Substance: 1791 (PKFL; REGION 1..4: note = epitope) [compound 1791]

Epitope sequence binding to IgE antibody, rank of the sequence [6]: Preferably
Substance: 1365 (SINVEN; REGION 1..6: note = epitope) [compound 1365]

Epitope sequence binding to IgE antibody, rank of the sequence (serum of patient P25 (WDEIA), partial sequence): Key
Substance: 2566 (YQLVQQLCC; REGION 1..9: note = epitope) [compound 2566]

epitope sequence binding to IgE antibody, rank (Key/Preferably/More preferably) (serum of patient P50 (child, general immediate type allergy to wheat)): Key
Substance: 1770 (VSSYLKK; REGION 1..7: note = epitope) [compound 1770]

epitope sequence binding to IgE antibody, rank (Key/Preferably/More preferably) (serum of patient P22 (WDEIA)): More preferably
Substance: 1944 (QFPGQQQ; REGION 1..7: note = epitope) [compound 1944]

Epitope sequence binding to IgE antibody, rank of the sequence (Key/Preferably/More preferably) (serum of patient P18 (WDEIA), sequence without X): Key
Substance: 2357 (HDIDRCAY; REGION 1..8: note = epitope) [compound 2357]

epitope sequence binding to IgE antibody, rank (Key/Preferably/More preferably) (serum of patient P32 (WDEIA)): Key
Substance: 1817 (SGKELE; REGION 1..6: note = epitope) [compound 1817]

epitope sequence binding to IgE antibody, rank (Key/Preferably/More preferably) (serum of patient P17 (WDEIA)): Key
Substance: 1801 (LEALPKFLKN; REGION 1..10: note = epitope) [compound 1801]

Epitope sequence binding to IgE antibody, rank of the sequence (serum of patient P14 (WDEIA), partial sequence): Key
Substance: 2679 (YKGPTL; REGION 1..6: note = epitope) [compound 2679]

Rank of partial sequence as epitope binding to IgE antibody (serum of patient P16 (WDEIA), sequence without X): Key
Substance: 1690 (EAANFT; REGION 1..6: note = epitope) [compound 1690]

Epitope sequence binding to IgE antibody, rank of the sequence (serum of patient P3 (WDEIA), sequence without X): Preferably
Substance: 1168 (PGQQQQFPPQ; REGION 1..10: note = epitope) [compound 1168]

Rank of partial sequence as epitope binding to IgE antibody (serum of patient G4 (adult, general immediate type allergy to wheat), sequence without X): Preferably
Substance: 1670 (YNPDKVPFV; REGION 1..9: note = epitope) [compound 1670]

Rank of partial sequence as epitope binding to IgE antibody [4]: Key
Substance: 1707 (SQVIIM; REGION 1..6: note = epitope) [compound 1707]

Epitope sequence binding to IgE antibody, rank of the sequence (serum of patient P31 (WDEIA), sequence without X): Key
Substance: 1244 (PIQQQP; REGION 1..6: note = epitope) [compound 1244]

epitope sequence binding to IgE antibody, rank (Key/Preferably/More preferably) (serum of patient P14 (WDEIA)): Key
Substance: 1927 (QFPGQQ; REGION 1..6: note = epitope) [compound 1927]

Rank of partial sequence as epitope binding to IgE antibody [5]: More preferably
Substance: 1451 (LQPQQPISQ; REGION 1..9: note = epitope) [compound 1451]

Epitope sequence binding to IgE antibody, rank of the sequence (Key/Preferably/More preferably) (serum of patient G6 (adult, general immediate type allergy to wheat), sequence without X): Key
Substance: 2263 (SRLLR; REGION 1..5: note = epitope) [compound 2263]

Rank of partial sequence as epitope binding to IgE antibody [6]: Preferably
Substance: 1500 (YLQPQQPIS; REGION 1..9: note = epitope) [compound 1500]

Epitope sequence binding to IgE antibody, rank of the sequence (serum of patient P31 (WDEIA), partial sequence): Key
Substance: 2584 (QLVQ; REGION 1..4: note = epitope) [compound 2584]

Rank of partial sequence as epitope binding to IgE antibody [7]: Key
Substance: 1615 (YNPD; REGION 1..4: note = epitope) [compound 1615]

Epitope sequence binding to IgE antibody, rank of the sequence (Key/Preferably/More preferably) [2]: Key
Substance: 2388 (RCAYVTEIV; REGION 1..9: note = epitope) [compound 2388]

epitope sequence binding to IgE antibody, rank (Key/Preferably/More preferably) (serum of patient P27 (WDEIA)): Key
Substance: 1866 (TVRTLQR; REGION 1..7: note = epitope) [compound 1866]

Epitope sequence binding to IgE antibody, rank of the sequence (Key/Preferably/More preferably/Further preferably) [3]: Further preferably
Substance: 2460 (LKAWSGK; REGION 1..7: note = epitope) [compound 2460]

epitope sequence binding to IgE antibody, rank (Key/Preferably/More preferably) (serum of patient P24 (WDEIA)): Key
Substance: 1862 (VRTLQ; REGION 1..5: note = epitope) [compound 1862]
